# Experimental data: patent publication US9067974B2, “Polymyxin derivatives and uses thereof” (priority 2006, dated 2015)
# Bridge positions count the residues as written; N and C are the ends. Square brackets hold non-standard residues; d marks the D form. Peptide text beside a SMILES is read from it. * marks the point of attachment. Octanoyl = CCCCCCCC(=O)*; Dab = NCC[C@H](N)C(=O)O; Abu = CC[C@H](N)C(=O)O
# How the values were obtained:
# [1] = Two-week intravenous toxicity study in young rats; type: in vivo
# Method: Toxicity in young rats (weighing approx. 150 g in the beginning of the study) was determined by administering doses (1, 2, 4, 8, 16, and 32 mg/kg per day) of NAB7061 as well as the control compound polymyxin B intravenously twice (2) a day for two weeks. A group of ten (10) rats was studied for each dosis regimen. Clinical observations were made daily, the body weight measured twice weekly, and the food consumption twice weekly. In the end of week 2, all animals were sacrificed.
# Histopathology of kidneys was performed for each animals and histopathology of all tissues was performed in three high-dose groups receiving NAB7061.
# E. coli CCUG41422 = assay: E-test MIC of antibiotics on Mueller-Hinton agar with or without NAB7061 (4 μg/ml); sensitization factor = MIC ratio absence/presence; type: cell-based, Escherichia coli
# Method: (§1) MICs were determined by using E-strips (Biodisk Ltd., Solna, Sweden) according to the manufacturer's instructions.
# (§2) The strains originated from ATCC (11 strains), CCUG (11 strains), and NCTC (The National Collection of Type Cultures, Colindale, U.K.; 2 strains). Eight strains (the F-strains) were purchased from Mobidiag Ltd., Helsinki, Finland. The source of E. coli IH3080 has been given in Example 2. Sensitization factor was defined as in Example 7.
# E. coli CCUG41424 = assay: as above; type: cell-based, Escherichia coli
# Method: as §1, §2
# E. coli CCUG41421 = assay: as above; type: cell-based, Escherichia coli
# Method: as §1, §2
# E. coli CCUG41425 = assay: as above; type: cell-based, Escherichia coli
# Method: as §1, §2
# K. pneumoniae F145 = assay: as above; type: cell-based, Klebsiella pneumoniae
# Method: as §1, §2
# K. pneumoniae F136 = assay: as above; type: cell-based, Klebsiella pneumoniae
# Method: as §1, §2
# K. pneumoniae CCUG45421 = assay: as above; type: cell-based, Klebsiella pneumoniae; conditions: NAB 7061 4 μg/ml
# Method: as §1, §2
# K. pneumoniae F144 = assay: as above; type: cell-based, Klebsiella pneumoniae
# Method: as §1, §2
# E. coli IH3080 = assay: Sensitization to rifampin: well diffusion growth inhibition on LB plates containing rifampin; type: cell-based, Escherichia coli; conditions: 4 μg of compound
# A. baumannii ATCC 19606 = assay: as above; type: cell-based, Acinetobacter baumannii; conditions: 4 μg of compound
# [2] = system: Ps. aeruginosa ATCC 27853; assay: as above; type: cell-based, Pseudomonas aeruginosa; conditions: 4 μg of compound
compound,measurement,setting,value
"CCCCCCCC(=O)N[C@H](C(=O)N[C@@H](CC)C(=O)N[C@H]1CCNC(=O)[C@H]([C@@H](C)O)NC(=O)[C@H](CCN)NC(=O)[C@H](CCN)NC(=O)[C@H](CC(C)C)NC(=O)[C@@H](Cc2ccccc2)NC(=O)[C@H](CCN)NC1=O)[C@@H](C)O [NAB 7061, OA-Thr-Abu-cy[Dab-Dab-DPhe-Leu-Dab-Dab-Thr-]] (Octanoyl-T[Abu][Dab][Dab][dF]L[Dab][Dab]T; lactam 3-C)",Rise of blood urea nitrogen (BUN) versus control or low dose group,"[1]; rat, in vivo, 16 mg/kg/day",no such a rise was found
same,Lowest dose that negatively influenced the body weight gain,"[1]; rat, in vivo, iv",8 mg/kg per day
same,Survival throughout the study,"[1]; rats, doses 1 to 32 mg/kg per day intravenously for two weeks",all rats receiving NAB7061 remained alive throughout the study
same,General pathology and histopathology of organs and kidneys,"[1]; rats, two weeks intravenous dosing",No NAB7061-related pathological findings were found
same,MIC of clarithromycin in the presence of 4 μg/ml of NAB 7061,E. coli CCUG41422,0.25 µg/mL
same,Sensitization factor to rifampin,E. coli CCUG41422; NAB 7061 4 μg/ml,170-256
same,MIC of clarithromycin in the presence of 4 μg/ml of NAB 7061,E. coli CCUG41424,0.125 µg/mL
same,Sensitization factor to rifampin,E. coli CCUG41424; NAB 7061 4 μg/ml,85-94
same,MIC of clarithromycin in the presence of 4 μg/ml of NAB 7061,E. coli CCUG41421,0.125 µg/mL
same,MIC of clarithromycin in the presence of 4 μg/ml of NAB 7061,E. coli CCUG41425,0.047 µg/mL
same,MIC of clarithromycin in the presence of 4 μg/ml of NAB 7061,K. pneumoniae F145,0.25 µg/mL
same,MIC of rifampin in the presence of 4 μg/ml of NAB 7061,K. pneumoniae F145,0.19 to 0.25 µg/mL
same,MIC of clarithromycin in the presence of 4 μg/ml of NAB 7061,K. pneumoniae F136,2 µg/mL
same,MIC of rifampin in the presence of 4 μg/ml of NAB 7061,K. pneumoniae F136,0.75 µg/mL
same,Sensitization factor to rifampin,K. pneumoniae CCUG45421,10-20
same,MIC of rifampin in the presence of 4 μg/ml of NAB 7061,K. pneumoniae F144,0.19 µg/mL
same,Sensitization factor to rifampin,K. pneumoniae F144; NAB 7061 4 μg/ml,>170
same,Antibacterial activity in the presence of rifampin (growth inhibition area around a well),E. coli IH3080; rifampin 0 μg/ml,0 square millimeters
same,Antibacterial activity in the presence of rifampin (growth inhibition area around a well),E. coli IH3080; rifampin 0.1 μg/ml,113 square millimeters
same,Antibacterial activity in the presence of rifampin (growth inhibition area around a well),E. coli IH3080; rifampin 1.0 μg/ml,155 square millimeters
same,Antibacterial activity in the presence of rifampin (growth inhibition area around a well),A. baumannii ATCC 19606; rifampin 0 μg/ml,0 square millimeters
same,Antibacterial activity in the presence of rifampin (growth inhibition area around a well),A. baumannii ATCC 19606; rifampin 0.1 μg/ml,28 square millimeters
same,Antibacterial activity in the presence of rifampin (growth inhibition area around a well),A. baumannii ATCC 19606; rifampin 0.3 μg/ml,50 square millimeters
same,Antibacterial activity in the presence of rifampin (growth inhibition area around a well),[2]; rifampin 0 μg/ml,0 square millimeters
same,Antibacterial activity in the presence of rifampin (growth inhibition area around a well),[2]; rifampin 0.1 μg/ml,0 square millimeters
same,Antibacterial activity in the presence of rifampin (growth inhibition area around a well),[2]; rifampin 0.3 μg/ml,0 square millimeters
